The record followed here is patent US10000765B2, “Gene encoding cytochrome P450, and use thereof” (NATIONAL INSTITUTE OF AGROBIOLOGICAL SCIENCES, priority 2011, dated 2018).

Molecules are shown by their SMILES.

The test system of data set [1] is Rice (Nipponbare) calluses transformed with pCAMBIA1390-KasCYP72A31. Nature of the data set: Selection of drug-resistant callus in N6D medium, pCAMBIA1390-KasCYP72A31. The note with it: 4 weeks. The format is cell-based, Oryza sativa. On the procedure: Rice transformed with pCAMBIA1390-KasCYP72A31 was used to examine whether a Kasalath-derived CYP72A31 gene was able to be used as a selection marker for transformation with BS as a selection reagent. According to Example 5, rice (Nipponbare) was transformed with pCAMBIA1390-KasCYP72A31 or pSTARA-sGFP by using an Agrobacterium method.
Rice (Nipponbare) calluses transformed with pCAMBIA1390-KasCYP72A31 were cultured for 4 weeks in an N6D medium containing 0.1 or 0.25 μM BS or an N6D medium containing 50 ppm hygromycin to select drug-resistant calluses. Also, rice calluses transformed with pSTARA-sGFP were selected in a similar manner in an N6D medium containing 0.25 μM BS.

Data set [2] concerns Wild-type rice (Nipponbare). Nature of the data set: Drug sensitivity test on gellan gum medium, wild-type rice. It is filed as in vivo, Oryza sativa. The note with it: plant height compared with drug-free medium. On the procedure:
Next, 1.6 g of Hoagland's mix (Sigma-Aldrich Corporation) and 3 g of Gelrite (Wako Pure Chemical Industries, Ltd.) were suspended in 1 L of distilled water. Then, the mixture was dissolved and heated in a microwave. After that, the mixture was cooled to 50 to 60 degree C., and BS was added at a final concentration of 1 μM. This mixture was dispensed into 30-mL tubular bottles at 15 mL to prepare a gellan gum medium. Next, CSSL rice paddies were soaked in 0.5% sodium hypochlorite for about 20 minutes, and were then washed well with water. These paddies were soaked in distilled water, and kept at 27 degree C. for 3 to 5 days for germination. Germinating seeds were softly planted in sprout-side up on the gellan gum medium. These samples, together with a beaker filled with distilled water, were placed in a transparent case, which was then covered with a clear-plastic wrap. These samples were grown at 27 degree C. under fluorescent light illumination (14 hours of a light period and 10 hours of a dark period) for 7 to 9 days.
According to the method of Example 1, a gellan gum medium containing a test drug at a concentration of 0.01, 0.1, 1, or 10 μM was prepared. Rice seeds were sterilized, germinated, seeded in the medium, and cultivated.

Data set [3] has as its system non-transformed Arabidopsis thaliana (NT). Nature of the data set: Drug sensitivity test on drug-containing MS medium, non-transformed Arabidopsis thaliana. The format is in vivo. On the procedure:
A bag of mixed salts for Murashige-Skoog (MS) medium (manufactured by Wako Pure Chemical Industries, Ltd.) 20 g of sucrose, 3 mg of thiamin hydrochloride, 5 mg of nicotinic acid, and 0.5 mg of pyridoxine hydrochloride were dissolved in distilled water, and filled up to 1 L with distilled water. After pH adjustment to 5.8 to 6.3 with 1 M KOH, 3 g of Gelrite was added to the solution, and dissolved using a microwave. After that, the mixture was autoclaved to prepare a sterile MS medium. A test drug was added to this sterile MS medium so as to make a final concentration of 1.3, 4.1, 12, 37, 110, or 330 nM. Arabidopsis thaliana from a sterilized seed was seeded in the drug-containing MS medium, and cultivated at 22° C. for 12 to 14 days in a continuous light period.
Note that the drugs used in this Example were bispyribac-sodium, pyrithiobac-sodium, pyriminobac, bensulfuron-methyl, penoxsulam, pyrazosulfuron-ethyl, amidosulfuron, imazosulfuron, nicosulfuron, and propyrisulfuron.

The subject of data set [4] is Arabidopsis thaliana K32-1-1, K32-3-1 and K32-5-1. In words: Growth test in BS-containing medium, Arabidopsis transformed with Kasalath-derived CYP72A32. It is filed as in vivo. The note with it: day 10 from onset of cultivation, compared to NT. The source says: In this Example, Agrobacterium as prepared in Example 4 was used to introduce HptII::35Spro::Kasalath CYP72A31::Tnos vector plasmid (pCAMBIA1390-KasCYP72A31), HptII::35Spro::Kasalath CYP72A32::Tnos vector plasmid (pCAMBIA1390-KasCYP72A32), or HptII::35Spro::Kasalath CYP72A33::Tnos vector plasmid (pCAMBIA1390-KasCYP72A33) into Arabidopsis thaliana (ecotype: Col-0) by using a floral-dip method. The floral-dip method followed a standard method. […] K31-4-2 and K31-6-5 were selected as fixed lines derived from pCAMBIA1390-KasCYP72A31; K32-1-1, K32-3-1, and K32-5-1 were selected as fixed lines derived from pCAMBIA1390-KasCYP72A32; and K33-1-3 and K33-2-4 were selected as fixed lines derived from pCAMBIA1390-KasCYP72A33. Their seeds were seeded in a medium containing each concentration of BS, and cultivated for 10 days. FIGS. 16A and 16B illustrate the results.
Next, 15 seeds for each of non-transformed Arabidopsis thaliana (NT which is denoted by “Col-0” in FIGS. 18A-18C) and transformed plant bodies (K32-1-1 which is denoted by “K32oe-1-1” in FIGS. 18A-18C, K32-3-1 which is denoted by “K32oe-3-1” in FIGS. 18A-18C, and K32-5-1 which is denoted by “K32oe-5-” in FIGS. 18A-18C) were cultivated on a medium containing each concentration of BS. […]

On to `COc1cc(OC)nc(Oc2cccc(Oc3nc(OC)cc(OC)n3)c2C(=O)O)n1` [BS, bispyribac sodium], for which the “Selection efficiency (ratio of the resulting transformed calluses/all calluses)” value in data set [1] (N6D medium containing 0.1 μM BS) is 71%; in data set [1] (N6D medium containing 0.25 μM BS) it was 61%. Also, the “CK ratio (%)” value in data set [2] (drug 0.01 μM) was found to be 82%; in data set [2] (drug 0.1 μM) it was 64%; in data set [2] (drug 1 μM), 22%; in data set [2] (drug 10 μM), 3%. In addition, the “Rate of emerging of true leaf (%)” value in data set [3] (drug 1.3 nM, day 12 after seeding) is recorded as 44%; in data set [3] (drug 1.3 nM, day 14 after seeding) it was 100%; in data set [3] (drug 4.1 nM, day 12 after seeding), 67%; in data set [3] (drug 4.1 nM, day 14 after seeding) it was 100%; in data set [3] (drug 12 nM, day 12 after seeding), 56%; in data set [3] (drug 12 nM, day 14 after seeding), 50%. Moreover, the “Rate of emerging of true leaf (%)” value was found to be 0% in data set [3] (drug 37 nM, day 12 after seeding); 0% in data set [3] (drug 37 nM, day 14 after seeding); 0% in data set [3] (drug 110 nM, day 12 after seeding); 0% in data set [3] (drug 110 nM, day 14 after seeding); 0% in data set [3] (drug 330 nM, day 12 after seeding); 0% in data set [3] (drug 330 nM, day 14 after seeding). For the same compound, the “BS sensitivity (germinated seeds, emerging of true leaves, fresh weight of above-ground part)” value in data set [4] is on record as “BS sensitivity equivalent to NT”.
